Experimental data: PMC12326981, “Novel C5α-substituted carbapenems enhance Mycobacterium abscessus killing via selective target binding and reduced hydrolysis by BlaMab” (Antimicrobial Agents and Chemotherapy, 2025)
pKi: −log10 of the molar value. Where “and” joins values, the source holds several entries; their conditions need not be identical. Equal entries are not always repeated. Where two headings read alike, the source gives them in different places. Marks after values point to notes of the source that are not given here.

Tests used:
[1] = target: T1, PBP-lipo (Mycobacteroides abscessus, UniProt B1MDC3); test: Bocillin-FL competitive binding assay; details: Bocillin-FL competition, 1:10 molar ratio
T1 construct: made in house; host or cells: Escherichia coli BL21 (DE3)
T1 sequence (B1MDC3 entry or part of it): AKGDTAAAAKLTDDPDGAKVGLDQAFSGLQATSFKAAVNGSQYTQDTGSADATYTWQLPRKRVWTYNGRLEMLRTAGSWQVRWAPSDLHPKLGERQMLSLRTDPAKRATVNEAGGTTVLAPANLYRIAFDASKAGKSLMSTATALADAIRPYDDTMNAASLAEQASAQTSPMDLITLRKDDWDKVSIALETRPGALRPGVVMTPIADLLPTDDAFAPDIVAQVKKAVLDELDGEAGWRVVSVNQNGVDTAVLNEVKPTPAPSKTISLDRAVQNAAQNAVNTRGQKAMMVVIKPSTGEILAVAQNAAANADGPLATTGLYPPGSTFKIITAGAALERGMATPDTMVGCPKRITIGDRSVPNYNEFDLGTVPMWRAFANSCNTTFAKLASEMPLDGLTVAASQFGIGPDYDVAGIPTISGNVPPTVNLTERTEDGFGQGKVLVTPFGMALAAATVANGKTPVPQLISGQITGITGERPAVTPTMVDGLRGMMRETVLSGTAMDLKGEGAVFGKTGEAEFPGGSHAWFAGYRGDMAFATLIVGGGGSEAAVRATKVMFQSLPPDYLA
Protocol: The binding of JDB/NA-1-157 and JDB/NA-1-208 to PBP-lipo was assessed using a Bocillin-FL competitive assay as previously described ([25]). Briefly, purified PBP-lipo and the compounds (at a 1:10 molar ratio) were incubated in a buffer containing 10 mM sodium phosphate (pH 7.4) and 150 mM NaCl for 2 h at room temperature, followed by additional incubation with 1 µM Bocillin FL for 4 h at 37°C. Samples were boiled and analyzed by SDS-PAGE. The PBP-lipo:Bocilli complexes were detected via fluorescence at 488 nm using an Azure 300 gel imaging system. Band intensity was quantified using GelAnalyzer software.

[2] = Thermal stability in 7H9 broth at 30°C; details: for Degradation percentage / degradation after 24 h: 7H9 broth, 30°C; for Degradation percentage: 24 h; for degradation after 24 h: 50 mg/L and 10 mg/L (Fig. S2); for half-life: buffer
Protocol: The stability of the two compounds in 7H9 broth was assessed at 30°C at drug concentrations of 10, 50, and 100 mg/L, with each condition tested in triplicate. Absorbance at 240 nm was measured every 2 h over a 24 h period using a BioTek Synergy2 multimode reader, with data analyzed via Gen5 software to monitor degradation or changes in stability. To evaluate the impact of thermal instability, MIC tests were performed using Mab ATCC 19977. Compounds were tested at time points of 0 h (no incubation) and 6, 24, and 48 h of incubation at 30°C. Imipenem and meropenem, known to be thermally unstable β-lactams, were included as positive controls. The MIC results were recorded after 48 h of incubation. Detailed MIC testing protocols were identical to those described below.

[3] = tested on: DDC; test: Mass spectrometric analysis of acyl-enzyme adducts; format: binding, Mycobacterium abscessus; set-up: key: (.) indicates no detectable binding; details: DDC (29,750); 1:10 molar ratio, 2 h; accuracy ±5 Da
Protocol: (§1) Truncated sequences of BlaMab (Δ1–30 blaMab), LDT1–5, DDC, PBP B, PonA2, and PBP-lipo (Δ1–41) were synthesized by Celtek Biosciences (Franklin, TN) and cloned into the pET28(a)+ vector. Purification of LDTs and PBPs was carried out as previously described ([15], [16], [20]). Briefly, clones were transformed into Escherichia coli BL21 (DE3), and protein expression was induced with 0.25 mM isopropyl β-d-1-thiogalactopyranoside. Cell pellets were resuspended in buffer containing 50 mM Tris (pH 8.0), 400 mM sodium chloride, and 1 mM Tris(2-carboxyethyl)phosphine hydrochloride and lysed by sonication. After centrifugation, the supernatant was purified using a His Prep FF column and eluted with 500 mM imidazole.
(§2) The purified proteins were incubated at room temperature with JDB/NA-1-157 and JDB/NA-1-208 at a molar ratio of 1:10 for 2 h. A quadrupole time-of-flight mass spectrometer (Waters Synapt-G2-Si) with electrospray ionization and a Waters Acquity H-Class UPLC system were used to analyze the samples. The liquid chromatography conditions were as follows: a BEH C18 column (1.7 µm, 2.1 × 50 mm) and a mobile phase consisting of 0.1% formic acid in water and 0.1% formic acid in acetonitrile, with a gradient elution from 10% to 90% acetonitrile over 11 min at a flow rate of 0.5 mL/min. The MS settings were optimized with a capillary voltage of 3 kV, a sampling cone voltage of 35 V, and source and desolvation temperatures of 100°C and 500°C, respectively. Gas flow rates were 100 L/h for the cone and 800 L/h for desolvation. The mass accuracy was maintained at ±5 Da.

[4] = target: LDT5 (Mycobacteroides abscessus, UniProt B1MHQ4); test: Mass spectrometric analysis of acyl-enzyme adducts; format: binding, Mycobacterium abscessus; set-up: key: (.) indicates no detectable binding; details: LDT5 (28,220); 1:10 molar ratio, 2 h; accuracy ±5 Da
Sequence of LDT5 (B1MHQ4 entry or part of it): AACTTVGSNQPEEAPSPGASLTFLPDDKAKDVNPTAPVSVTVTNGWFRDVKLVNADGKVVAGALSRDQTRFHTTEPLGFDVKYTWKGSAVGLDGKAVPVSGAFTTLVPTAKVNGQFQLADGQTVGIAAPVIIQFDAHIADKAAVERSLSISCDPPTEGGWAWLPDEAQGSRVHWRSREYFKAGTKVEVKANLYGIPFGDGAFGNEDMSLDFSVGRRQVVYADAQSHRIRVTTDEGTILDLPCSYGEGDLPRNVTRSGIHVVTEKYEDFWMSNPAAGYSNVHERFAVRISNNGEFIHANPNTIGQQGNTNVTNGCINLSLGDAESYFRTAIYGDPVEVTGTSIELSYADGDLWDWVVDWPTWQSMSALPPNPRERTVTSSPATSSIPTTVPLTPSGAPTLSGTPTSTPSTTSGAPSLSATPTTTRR
Protocol: as §1, §2

[5] = tested on: Mab ATCC 19977; test: MIC testing with drugs pre-incubated in 7H9 broth (effect of drug instability); format: cell-based, Mycobacterium abscessus; details: for MIC: Mycobacteroides abscessus, ATCC19977; for MIC rise after 24 and 48 h incubation vs nonincubated: drug incubated 24 and 48 h
Protocol: MICs were determined in duplicate following Clinical Laboratory Standards Institute ([52]) guidelines using Middlebrook 7H9 broth supplemented with 10% (vol/vol) oleic acid-albumin-dextrose-catalase (OADC) and 0.05% (vol/vol) Tween 80, with an inoculum of 5 × 10⁵ CFU/mL. MIC testing of two C5α-substituted carbapenems was conducted both individually and in combination with cephalosporins (cefuroxime and ceftaroline), penicillins (amoxicillin), or BLIs (avibactam or durlobactam + sulbactam). Avibactam, durlobactam, cefuroxime, ceftaroline, and amoxicillin were fixed at concentrations of 4, 1, 2, 4, and 4 mg/L, respectively. Amoxicillin was combined with 4 mg/L avibactam, as it is highly susceptible to hydrolysis by BlaMab ([12], [15], [25]). The MIC was defined as the lowest antibiotic concentration that inhibited visible bacterial growth following 48 h of incubation at 30°C.

[6] = target: PBP B (Mycobacteroides abscessus, UniProt B1MP31); test: Apparent inhibition constant (nitrocefin, Dixon plot); format: biochemical; details: PBP B
Sequence of PBP B (B1MP31 entry or part of it): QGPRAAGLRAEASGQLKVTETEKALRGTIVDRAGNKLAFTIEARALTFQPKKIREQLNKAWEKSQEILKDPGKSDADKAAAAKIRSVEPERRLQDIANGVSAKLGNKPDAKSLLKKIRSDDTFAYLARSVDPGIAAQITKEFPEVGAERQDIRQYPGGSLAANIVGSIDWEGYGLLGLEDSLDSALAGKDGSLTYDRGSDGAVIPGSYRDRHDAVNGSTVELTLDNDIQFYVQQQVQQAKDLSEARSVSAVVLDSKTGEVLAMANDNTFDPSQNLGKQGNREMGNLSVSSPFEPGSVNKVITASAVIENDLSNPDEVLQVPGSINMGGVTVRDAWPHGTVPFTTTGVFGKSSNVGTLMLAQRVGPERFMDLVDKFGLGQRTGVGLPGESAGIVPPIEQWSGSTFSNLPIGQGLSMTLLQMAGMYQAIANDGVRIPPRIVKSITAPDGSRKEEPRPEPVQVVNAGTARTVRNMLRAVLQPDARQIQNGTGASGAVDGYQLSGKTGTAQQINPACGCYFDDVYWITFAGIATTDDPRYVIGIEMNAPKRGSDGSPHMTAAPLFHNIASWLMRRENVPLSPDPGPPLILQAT
Protocol: Steady-state kinetic studies with JDB/NA-1-157 and JDB/NA-1-208 were performed using purified LDTs and PBPs, including LDT1–5, PBP-B, PBP-lipo, and D,D-carboxypeptidase. The assays were conducted on a BioTek Synergy2 multimode reader equipped with Gen5 software. To determine the Michaelis constant (Km^NCF) for each LDT and PBP, a wide range of NCF concentrations was tested, while the enzyme concentrations were fixed. Absorbance changes at 482 nm were monitored over 10 min. Steady-state kinetic parameters (Vmax and Km) were derived by fitting the experimental data to the Henri–Michaelis–Menten equation using nonlinear least-squares regression in GraphPad Prism version 9. The reaction velocity (v) at a given substrate concentration ([S]) was calculated using equation 2: […]
The apparent inhibition constants (Ki,app) for JDB/NA-1-157 and JDB/NA-1-208 were determined under the following conditions: an NCF concentration of 5 × Km, fixed concentrations of LDT or PBP enzymes, and varying concentrations of JDB/NA-1-157 and JDB/NA-1-208. Absorbance changes at 482 nm were monitored over a 30 min period for each inhibitor concentration. The data were linearized using a Dixon plot, which involves plotting the reciprocal of the absorbance change (1/ΔA) against the concentrations of JDB/NA-1-157 or JDB/NA-1-208. Apparent Ki,app values were derived from the intersection points on the Dixon plot and were subsequently corrected for substrate concentration and enzyme affinity using equation 3:
(3) Ki,app=observed Ki,app/1+[NCF]/Km NCF.

[7] = target: BlaMab (Mycobacteroides abscessus, UniProt B1MCI3); test: Mass spectrometric analysis of acyl-enzyme adducts; format: binding; set-up: key to Mass of protein after incubation (mass shift): (.) indicates no detectable binding; details: for adduct formation with BlaMab: mass spectrometry
Sequence of BlaMab (B1MCI3 entry or part of it): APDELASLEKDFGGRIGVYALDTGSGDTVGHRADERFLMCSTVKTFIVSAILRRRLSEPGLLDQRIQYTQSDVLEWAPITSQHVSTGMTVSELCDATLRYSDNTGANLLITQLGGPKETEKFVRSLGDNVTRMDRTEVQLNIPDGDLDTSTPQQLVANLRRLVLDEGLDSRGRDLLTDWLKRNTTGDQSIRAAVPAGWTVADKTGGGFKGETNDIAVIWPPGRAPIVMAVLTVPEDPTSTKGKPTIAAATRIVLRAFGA
Protocol: as §1, §2

[8] = drug incubated 6 h in 7H9 broth at 30°C
[9] = drug incubated 24 h in 7H9 broth at 30°C
[10] = drug incubated 48 h in 7H9 broth at 30°C

C[C@@H](O)[C@H]1C(=O)N2C(C(=O)O)=C(S[C@@H]3CN[C@H](C(=O)N(C)C)C3)C[C@]12C [JDB/NA-1-157]
binding to PBP-lipo [1]: form acyl-enzyme complexes | Degradation percentage ([2]; 10 mg/L): 11.9% | degradation after 24 h [2]: 16% | Degradation percentage ([2]; 50 mg/L): 16.2% | Degradation percentage ([2]; 100 mg/L): 16% and 16.6% | half-life [2]: 50 h | Mass of protein after incubation (mass shift) [3]: 30,134 (+383) Da | Mass of protein after incubation (mass shift) [4]: 28,219 (.) | MIC [5, 8]: 0.25 mg/L | MIC [5, 9]: 2 mg/L | MIC [5, 10]: 2 mg/L | MIC ([5]; no incubation of drug): 0.25 mg/L | MIC rise after 24 and 48 h incubation vs nonincubated [5]: fourfold | pKi ([6]; Ki,app): 5.31 | adduct formation with BlaMab [7]: formed a complex

CC[C@]12CC(S[C@@H]3CN[C@H](C(=O)N(C)C)C3)=C(C(=O)O)N1C(=O)[C@@H]2[C@@H](C)O [JDB/NA-1-208]
binding to PBP-lipo [1]: lacks binding | Degradation percentage ([2]; 10 mg/L): 0.6% | degradation after 24 h [2]: approximately 10% | Degradation percentage ([2]; 50 mg/L): 10.5% | half-life [2]: 66 h | Mass of protein after incubation (mass shift) [3]: 29,750 (.) | Mass of protein after incubation (mass shift) [4]: 28,617 (+397) Da | MIC [5, 8]: 16 mg/L | MIC [5, 9]: 32 mg/L | MIC [5, 10]: 32 mg/L | MIC ([5]; no incubation of drug): 16 mg/L | MIC rise after 24 and 48 h incubation vs nonincubated [5]: twofold | Ki ([6]; read-out: Ki,app (converted)): 0.0805 µM | Mass of protein after incubation (mass shift) ([7]; BlaMab (28,433), 1:10 molar ratio, 2 h, room temperature, accuracy ±5 Da): 28,434 (.)^b | adduct formation with BlaMab [7]: did not form an adduct
